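Method: 48-hour compound exposure of cells in 96-well plates, five concentrations, linear interpolation of endpoints. Here, GI50 denotes the concentration required for 50% inhibition of growth.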 The source made the active and inactive calls. Rule as the data show it: active = GI50 up to about 1.1 µM and inactive = higher.
Tests used:
Assay in all cases: DTP human tumour cell line panel, 48 h
786-0 = system: 786-0
A549 = system: A549
ACHN = system: ACHN
BT-549 = system: BT-549
CAKI-1 = system: CAKI-1
CCRF-CEM = system: CCRF-CEM
COLO 205 = system: COLO 205
DU-145 = system: DU-145
EKVX = system: EKVX
HCC 2998 = system: HCC 2998
HCT-116 = system: HCT-116
HCT-15 = system: HCT-15
HL-60 = system: HL-60
HOP-62 = system: HOP-62
HOP-92 = system: HOP-92
HT-29 = system: HT-29
Hs-578T = system: Hs-578T
IGROV-1 = system: IGROV-1
K562 = system: K562
KM12 = system: KM12
LOX IMVI = system: LOX IMVI
M14 = system: M14
MCF7 = system: MCF7
MDA-MB-231 = system: MDA-MB-231
MDA-MB-435 = system: MDA-MB-435
MDA-N = system: MDA-N
MOLT-4 = system: MOLT-4
Malme-3M = system: Malme-3M
NCI-H226 = system: NCI-H226
NCI-H23 = system: NCI-H23
NCI-H460 = system: NCI-H460
NCI-H522 = system: NCI-H522
NCI/ADR-RES = system: NCI/ADR-RES
OVCAR-3 = system: OVCAR-3
OVCAR-4 = system: OVCAR-4
OVCAR-5 = system: OVCAR-5
OVCAR-8 = system: OVCAR-8
PC-3 = system: PC-3
RPMI-8226 = system: RPMI-8226
SF-268 = system: SF-268
SF-295 = system: SF-295
SF-539 = system: SF-539
SK-MEL-28 = system: SK-MEL-28
SK-MEL-2 = system: SK-MEL-2
SK-OV-3 = system: SK-OV-3
SN12C = system: SN12C
SNB-19 = system: SNB-19
SNB-75 = system: SNB-75
SR = system: SR
SW-620 = system: SW-620
TK-10 = system: TK-10
U-251 = system: U-251
UACC-257 = system: UACC-257
UACC-62 = system: UACC-62
UO-31 = system: UO-31
RXF 393 = system: RXF 393
SK-MEL-5 = system: SK-MEL-5

Cc1ccc(S(=O)(=O)Nn2c(C)cc3ccc(S(=O)(=O)Nc4ccccc4[N+](=O)[O-])cc3c2=O)cc1
GI50 (786-0): > 100 µM (inactive) | GI50 (A549): 72.8 µM (inactive) | GI50 (ACHN): > 100 µM (inactive) | GI50 (BT-549): > 100 µM (inactive) | GI50 (CAKI-1): > 100 µM (inactive) | GI50 (CCRF-CEM): > 100 µM (inactive) | GI50 (COLO 205): 18.6 µM (inactive) | GI50 (DU-145): > 100 µM (inactive) | GI50 (EKVX): 95.9 µM (inactive) | GI50 (HCC 2998): > 100 µM (inactive) | GI50 (HCT-116): 47.4 µM (inactive) | GI50 (HCT-15): > 100 µM | GI50 (HL-60): > 100 µM (inactive) | GI50 (HOP-62): 72.3 µM (inactive) | GI50 (HOP-92): 94.6 µM (inactive) | GI50 (HT-29): > 100 µM (inactive) | GI50 (Hs-578T): 45.3 µM (inactive) | GI50 (IGROV-1): 43 µM (inactive) | GI50 (K562): 3.85 µM (inactive) | GI50 (KM12): 18.2 µM (inactive) | GI50 (LOX IMVI): > 100 µM (inactive) | GI50 (M14): 13.6 µM (inactive) | GI50 (MCF7): 99.3 µM (inactive) | GI50 (MDA-MB-231): > 100 µM (inactive) | GI50 (MDA-MB-435): > 100 µM (inactive) | GI50 (MDA-N): 29.6 µM (inactive) | GI50 (MOLT-4): > 100 µM (inactive) | GI50 (Malme-3M): > 100 µM (inactive) | GI50 (NCI-H226): 40.1 µM (inactive) | GI50 (NCI-H23): > 100 µM (inactive) | GI50 (NCI-H460): 77.3 µM (inactive) | GI50 (NCI-H522): > 100 µM (inactive) | GI50 (NCI/ADR-RES): > 100 µM (inactive) | GI50 (OVCAR-3): 74.1 µM (inactive) | GI50 (OVCAR-4): > 100 µM (inactive) | GI50 (OVCAR-5): > 100 µM (inactive) | GI50 (OVCAR-8): > 100 µM (inactive) | GI50 (PC-3): 31.6 µM (inactive) | GI50 (RPMI-8226): 62.8 µM (inactive) | GI50 (SF-268): > 100 µM (inactive) | GI50 (SF-295): 17.6 µM (inactive) | GI50 (SF-539): > 100 µM (inactive) | GI50 (SK-MEL-28): > 100 µM (inactive) | GI50 (SK-MEL-2): 39.4 µM (inactive) | GI50 (SK-OV-3): > 100 µM (inactive) | GI50 (SN12C): 82.4 µM (inactive) | GI50 (SNB-19): > 100 µM (inactive) | GI50 (SNB-75): > 100 µM (inactive) | GI50 (SR): > 100 µM (inactive) | GI50 (SW-620): > 100 µM (inactive) | GI50 (TK-10): > 100 µM (inactive) | GI50 (U-251): > 100 µM (inactive) | GI50 (UACC-257): > 100 µM (inactive) | GI50 (UACC-62): 38.9 µM (inactive) | GI50 (UO-31): 63.7 µM (inactive)

c1nc(OCC2CCCCC2)c2nc[nH]c2n1
GI50 (786-0): > 100 µM (inactive) | GI50 (A549): 66.4 µM (inactive) | GI50 (ACHN): 10.1 µM (inactive) | GI50 (BT-549): > 100 µM (inactive) | GI50 (CAKI-1): > 100 µM (inactive) | GI50 (CCRF-CEM): > 100 µM (inactive) | GI50 (COLO 205): 32 µM (inactive) | GI50 (DU-145): 73.8 µM (inactive) | GI50 (EKVX): 53 µM (inactive) | GI50 (HCC 2998): > 100 µM (inactive) | GI50 (HCT-116): 35.7 µM (inactive) | GI50 (HCT-15): 46.3 µM | GI50 (HL-60): > 100 µM (inactive) | GI50 (HOP-62): 55.7 µM (inactive) | GI50 (HOP-92): 66.7 µM (inactive) | GI50 (HT-29): 49.9 µM (inactive) | GI50 (Hs-578T): > 100 µM (inactive) | GI50 (IGROV-1): 46.5 µM (inactive) | GI50 (K562): 99.8 µM (inactive) | GI50 (KM12): 54.1 µM (inactive) | GI50 (LOX IMVI): 34.9 µM (inactive) | GI50 (M14): 59.4 µM (inactive) | GI50 (MDA-MB-231): 63.2 µM (inactive) | GI50 (MDA-MB-435): 46.7 µM (inactive) | GI50 (MDA-N): 28.2 µM (inactive) | GI50 (MOLT-4): 31.6 µM (inactive) | GI50 (Malme-3M): 70.5 µM (inactive) | GI50 (NCI-H226): 26.9 µM (inactive) | GI50 (NCI-H23): 45.3 µM (inactive) | GI50 (NCI-H460): 72.6 µM (inactive) | GI50 (NCI-H522): 44.4 µM (inactive) | GI50 (NCI/ADR-RES): 61.4 µM (inactive) | GI50 (OVCAR-3): 53.1 µM (inactive) | GI50 (OVCAR-4): > 100 µM (inactive) | GI50 (OVCAR-5): 62.7 µM (inactive) | GI50 (OVCAR-8): 47.2 µM (inactive) | GI50 (PC-3): 85.9 µM (inactive) | GI50 (RPMI-8226): 15.6 µM (inactive) | GI50 (RXF 393): 60.7 µM (inactive) | GI50 (SF-268): 44.5 µM (inactive) | GI50 (SF-295): 50.9 µM (inactive) | GI50 (SF-539): 36.1 µM (inactive) | GI50 (SK-MEL-28): > 100 µM (inactive) | GI50 (SK-MEL-2): 40.6 µM (inactive) | GI50 (SK-MEL-5): 26.1 µM (inactive) | GI50 (SK-OV-3): 43.7 µM (inactive) | GI50 (SN12C): 57.8 µM (inactive) | GI50 (SNB-19): > 100 µM (inactive) | GI50 (SNB-75): 51.4 µM (inactive) | GI50 (SW-620): 59.6 µM (inactive) | GI50 (TK-10): > 100 µM (inactive) | GI50 (U-251): 58.3 µM (inactive) | GI50 (UACC-257): 91.8 µM (inactive) | GI50 (UACC-62): 47.1 µM (inactive) | GI50 (UO-31): 42.9 µM (inactive)

— ChEMBL document CHEMBL1201862, “PubChem BioAssay data set” (2004)
